The target of one data set is T1, HIV-1 CA (Human immunodeficiency virus type 1 group M subtype B, UniProt P12493).
T1 construct: Wild-type HIV-1 CA was overexpressed and purified as previously described; made in house
Put plainly: Turbidity-based in vitro CA assembly assay. The data set is classed as biochemical. Conditions: turbidity at 350 nm; for Effect on CA assembly, turbidity (in words): 50 mM NaPO4 pH 8.0; for initial rate of CA assembly: compound:CA ratio 2:1, mean ± standard deviation from three experiments, DMSO control 216 ± 6.23. Here is the method:
The ability of stapled peptides to disrupt CA-CA interactions was also assessed using a turbidity-based in vitro CA assembly assay. This assay is based on the observation that the turbidity of a CA-containing solution increases in proportion to the extent of assembly.
Wild-type HIV-1 CA was overexpressed and purified as previously described. […] Turbidity assays were carried out in triplicate using a Beckman spectrophotometer at a wavelength of 350 nm to monitor HIV-1 in vitro assembly conducted at ambient temperatures. Protein samples were prepared in an assembly buffer [50 mM NaPO4 pH 8.0]. In vitro assembly reactions were prepared with 250 μl of assembly buffer containing 60 μM protein. To catalyze CA assembly 250 μl of an assembly buffer containing 5M NaCl was added. The solution was mixed by agitation and transferred a cuvette for a total delay of 20 seconds. Assembly was monitored every 10 sec for the first min and every min thereafter for a total 10 min. Assembly reactions with stapled peptides were incubated in the assembly buffer for 10 min and then centrifuged for 1 min to separate any insoluble fractions before catalyzing assembly.

The subject of a further data set is HIV-1 pNL4-3. Kind of data set: Virus assembly and release assay, Gag processing. Conditions: 293T cells transfected with pNL4-3, peptide for 16–20 h, ratio of Pr55Gag to p24. It counts as cell-based. How it is done: This inhibition was specific to HIV-1 as the release of another lentivirus, equine infectious anemia virus (EIAV), was not inhibited. In this study we investigated whether i,i + 7 stapled CAI-derived peptides have any effect on virus release. 293T cells were transfected with the full-length HIV-1 molecular clone pNL4-3, treated with stapled peptides for 16–20 h, and metabolically labeled with [^35S]Met/Cys. The cell- and virus-associated proteins were immunoprecipitated with HIV-Ig.
Figure 6 i + 7 stapled peptides have no effect on HIV-1 release, but impair Gag processing. […] Cells were metabolically labeled with [^35S]Met/Cys for 2 h. Cells were lysed and virions were collected by ultracentrifugation. Cell and virus lysates were immunoprecipitated with HIV-Ig and subjected to SDS-PAGE. Protein band intensities were quantified by phosphorimager analysis, and HIV-1 release was calculated as the amount of virion-associated p24 relative to total (cell- plus virion-associated) Gag. (b) Accumulation of unprocessed Gag in cells was measured by calculating the ratio of Pr55^Gag to p24 in cells. P values were calculated by Student’s t-test, with P < 0.05 considered significant. N = 3, ± SD.
293T cells, plated at 3 × 10^5 cells/well in 12 well plates, were transfected with the HIV-1 molecular clone pNL4-3 [69]. […] One day posttransfection, cells were metabolically labeled with [^35S]Met/Cys for 2 h. The labeled virions were pelleted in an ultracentrifuge, and the virus and cell lysates were immunoprecipitated with pooled sera from HIV-1-infected patients (HIV-Ig, obtained from the ARP) and subjected to SDS-PAGE. Protein band intensities were quantified by phosphorimager analysis, and virus release was calculated as the amount of virion-associated Gag as a fraction of total (cell- plus virion-associated) Gag synthesized during the metabolic labeling period. Accumulation of Pr55^Gag in cells was measured by calculating the ratio of Pr55^Gag to p24 (CA).

The subject of another data set is HIV-1 pNL4-3 (WT). It counts as cell-based.
A further data set concerns WT HIV-1 (NL4-3). The data set is classed as cell-based.
For data set [1], the system named is HIV-1 V120Q/A327P Env mutant. It counts as cell-based.
The test system of data set [2] is WT NL4-3. Put plainly: Spreading virus replication in Jurkat T-cell line, RT activity, WT. The data set is classed as cell-based, HIV-1. Conditions: Jurkat cells transfected with pNL4-3 (WT), 37.5 μM peptide.
In data set [3] the test system is WT NL4-3. Put plainly: Virus replication in PBMC, WT. It counts as cell-based, HIV-1. The following applies: PBMC from three donors, 30 μM peptide, RT activity.
The test system of another data set is V120Q/A327P mutant. Kind of data set: Virus replication in PBMC, Env mutant. It counts as cell-based, HIV-1. Conditions: PBMC from three donors, 30 μM peptide, RT activity.
Data set [4] relates to N-terminal and C-terminal V3 loop peptides. Put plainly: ITC binding to N-terminal and C-terminal V3 loop peptides. The arrangement: species or system HIV-1. The following applies: overlapping 15-mer V3 peptides. Here is the method: (§1) We also used ITC to measure the binding affinity of the stapled peptides to full-length cyclic V3 loop peptide.
(§2) Full-length V3 peptide (Cat# 1840), cyclic V3 peptide (Cat# 1837) and 15-mer overlapping V3 peptides (Cat# 1832, 6282, 6283, 6284, 6285, 6287, 6288, 6289, 6290 and 6291, for amino acid sequence see HIV-1 Subtype B (MN) Env Peptides - Complete Set Cat# 6451) were obtained through the NIH ARP.
(§3) For forward titration, 90 μM full-length V3 peptide, full-length cyclic V3 peptide or 90 μM 15-mer V3 peptides were titrated into 4.5 μM of stapled or linear peptides. Reference measurements were performed by titrating 90 μM full-length V3 peptide, full-length cyclic V3 peptide or 15-mer V3 peptide into buffer without peptide. For reverse titration, 90 μM stapled peptide was titrated into 4.5 μM full-length V3 peptide, full-length cyclic V3 peptide or […]. Reference measurements were performed by titrating 90 μM stapled peptide into buffer without peptide.

Data set [5] addresses tip of V3 loop (15-mer V3 tip peptide). Kind of data set: ITC binding to 15-mer V3 tip peptide. The arrangement: species or system HIV-1. Conditions: 90 μM 15-mer V3 tip peptide titrated into 4.5 μM peptide, single-site model. How it is done: as §1, §2, §3
Setting [6] is: 50 μM peptide during 2 h infection, TZM-bl cells, luciferase two days post-infection.

This note sets out measurements from paper PMC3842668, “Dual-acting stapled peptides target both HIV-1 entry and assembly” (Retrovirology, 2013).

Where two headings read alike, the source gives them in different places. Where a SMILES comes first, the peptide text is derived from it. Bridges are numbered along the chain shown (N, C = ends). [ ]: non-standard residue; d: D form. R8 = C=CCCCCCC[C@@](C)(N)C(=O)O; S5 = C=CCCC[C@](C)(N)C(=O)O

Take `CC[C@H](C)[C@H](NC(C)=O)C(=O)N[C@@H](CO)C(=O)N[C@@H](Cc1ccccc1)C(=O)N[C@]1(C)CCCCCCC=CCCC[C@@](C)(C(=O)N[C@@H](CCC(=O)O)C(=O)N[C@@H](CC(=O)O)C(N)=O)NC(=O)[C@H](Cc2ccc(O)cc2)NC(=O)[C@H](Cc2ccc(O)cc2)NC(=O)[C@H](CC(=O)O)NC(=O)[C@H](CC(C)C)NC(=O)[C@H](CC(C)C)NC(=O)[C@H](CCC(=O)O)NC1=O` [NYAD-66] (Ac-ISF[R8]ELLDYY[S5]ED-NH2; staple 4-11): on HIV-1 CA, the “Effect on CA assembly, turbidity (in words)” value (“Effect on CA assembly” below) is recorded as “reduced the extent of CA assembly in a dose-dependent manner” and the “initial rate of CA assembly” value is listed as 166 ± 18.91 mOD/min. Moreover, in the data set on HIV-1 pNL4-3, the “Accumulation of cell-associated Pr55Gag (in words)” value is “modest accumulation of cell-associated Pr55^Gag”. The “reduction in infectivity of virions produced from treated cells” value in the data set on HIV-1 pNL4-3 (WT) (293T producer cells treated with 50 μM peptide for two days, RT-normalized virus on TZM-bl, luciferase) was “four-fold”. Besides, the “fold reduction of virus infectivity, WT” value in the data set on WT HIV-1 (NL4-3) (setting [6]) is reported as “around 3 fold”. In addition, in data set [1] (setting [6]), the “fold reduction of virus infectivity, V120Q/A327P double mutant” value is given as “less than 2 fold”. Besides, the “virus replication (in words)” value in the data set with WT NL4-3 [2] is given as “significantly delayed”. Besides, the “virus replication (in words)” value in the data set on WT NL4-3 [3] was “strongly inhibited replication of WT NL4-3 in PBMC”. For the same molecule, in the data set on V120Q/A327P mutant, the “virus replication (in words)” value is “showed some antiviral activity against the V120Q/A327P mutant”. For the same molecule, in the data set on MT-2 cells, the “% toxicity at that dose (number in parenthesis)” value is recorded as 0% and the “CC 50 (μM ± SD) in MT-2” value was > 115 µM. Besides, the “Cell penetration (in words)” value with 293T cells is on record as “penetrate cells less efficiently than NYAD-1”.
`CC[C@H](C)[C@H](NC(C)=O)C(=O)N[C@@H](CO)C(=O)N[C@@H](Cc1ccccc1)C(=O)N[C@]1(C)CCCCCCC=CCCC[C@@](C)(C(=O)N[C@@H](CCC(=O)O)C(=O)N[C@@H](CC(=O)O)C(=O)N[C@@H](CCC(=O)O)C(N)=O)NC(=O)[C@H](Cc2ccc(O)cc2)NC(=O)[C@H](C)NC(=O)[C@H](CCC(N)=O)NC(=O)[C@H](CC(C)C)NC(=O)[C@H](Cc2c[nH]c3ccccc23)NC(=O)[C@H](CCC(=O)O)NC1=O` [NYAD-67] (Ac-ISF[R8]EWLQAY[S5]EDE-NH2; staple 4-11): at HIV-1 CA, the “Effect on CA assembly” value was “did not influence the rate or extent of CA assembly” and the “initial rate of CA assembly” value is reported as 205 ± 18.89 mOD/min. The “Accumulation of cell-associated Pr55Gag (in words)” value in the data set with HIV-1 pNL4-3 is listed as “modest accumulation of cell-associated Pr55^Gag”. Further, the “reduction in infectivity of virions produced from treated cells” value in the data set with HIV-1 pNL4-3 (WT) is “two-log reduction in infectivity”. Also, in the data set on WT HIV-1 (NL4-3), the “fold reduction of virus infectivity, WT” value is given as > 40 fold. For the same molecule, the “fold reduction of virus infectivity, V120Q/A327P double mutant” value in [1] is recorded as ~ 2.5 fold. The “virus replication (in words)” value in the data set with WT NL4-3 [2] is “completely blocked”. For the same molecule, in the data set with WT NL4-3 [3], the “virus replication (in words)” value is given as “strongly inhibited replication of WT NL4-3 in PBMC”. The “virus replication (in words)” value with V120Q/A327P mutant is “showed some antiviral activity against the V120Q/A327P mutant”. Further, the “binding to N-terminal and C-terminal V3 loop peptides (in words)” value in [4] is recorded as “neither N-terminal nor C-terminal V3 loop peptides bind”. The Kd (in general, a measure of binding affinity in units of concentration) in data set [5] is 8.92 ± 1.8 µM. Further, in the data set with MT-2 cells, the “% toxicity at that dose (number in parenthesis)” value turned out to be 0% and the “CC 50 (μM ± SD) in MT-2” value is > 107.4 µM. Further, the “Cell penetration (in words)” value in the data set with 293T cells is “penetrate cells less efficiently than NYAD-1”.
For the molecule “Ac-IRQGPKEPFRDYVDR-NH2 [NYAD-401, reference compound]”, at HIV-1 CA, the “Effect on CA assembly” value is “no observable effect on CA assembly” and the “initial rate of CA assembly” value stood at 223 ± 32.5 mOD/min.
For the molecule “Ac-ISF-R8-ELEDYY-S5-ESGS (sidechain bridge or staple) [NYAD-43]”, in the data set on MT-2 cells, the “CC 50 (μM ± SD) in MT-2” value was >106.6 µM.
Still for that read-out and setting: as for “Ac-ISF-R8-ELLDYY-S5-EKSGSKD-amide (sidechain bridge or staple) [NYAD-55]”, the figure is >89.7 µM.
For “Ac-ISF-R8-ELLDYY-S5-ESGSKKK-amide (sidechain bridge or staple) [NYAD-44]”, the “CC 50 (μM ± SD) in MT-2” value in the data set with MT-2 cells was 17.2 ± 1.4 µM.
On the same count and under the same terms, as for “Ac-ISF-R8-ELLRYY-S5-R-amide (sidechain bridge or staple) [NYAD-56]”, the figure is 16.4 ± 1.2 µM; as for “Ac-ISF-R8-EWLQYY-S5-R-amide (sidechain bridge or staple) [NYAD-33]”, 9.2 ± 0.26 µM.
“Ac-ISF-R8-QLLDYY-S5-QSGSK-amide (sidechain bridge or staple) [NYAD-46]”: the “CC 50 (μM ± SD) in MT-2” value with MT-2 cells is 10.6 ± 0.6 µM.
For the molecule Ac-ISFDELLDYYGESGS [NYAD-41], the “% FAM” value with 293T cells (FACS, 293T cells, 4 μM FAM-conjugated peptide, 20 h at 37°C, serum-free media, 0.25% Trypsin-EDTA 30 min) was found to be 1.43%.
As for “Ac-R-R8-FAELLD-S5-YGESGS-amide (sidechain bridge or staple) [NYAD-63]”, the “CC 50 (μM ± SD) in MT-2” value in the data set with MT-2 cells is >113 µM.
In the case of “Ac-RRF-R8-ELLDYY-S5-ESGS-amide (sidechain bridge or staple) [NYAD-62]”, in the data set with MT-2 cells, the “CC 50 (μM ± SD) in MT-2” value was 15.4 ± 0.2 µM.
Same read-out and setting: as for “Ac-RSF-R8-RLLDYY-S5-ESGS-amide (sidechain bridge or staple) [NYAD-61]”, the figure is 31.7 ± 1.4 µM; as for “Ac-RSFE-R8-LLDYYG-S5-SGS-amide (sidechain bridge or staple) [NYAD-65]”, >116 µM.
The same measure, in the same setting: as for “Ac-SK-R8-ELLDYY-S5-ESGS-amide (sidechain bridge or staple) [NYAD-64]”, the figure is >109 µM; as for “IRF-R8-QLLNYY-S5-ESGS-amide (sidechain bridge or staple) [NYAD-58]”, 14.9 ± 1 µM.
For “ISF-R8-ELLNYY-S5-ESGS-amide (sidechain bridge or staple) [NYAD-57]”, the “CC 50 (μM ± SD) in MT-2” value in the data set on MT-2 cells was 39.6 ± 4.4 µM.
